Measurements from ChEMBL document CHEMBL4342418, “1,2,3-Triazole-containing hybrids as potential anticancer agents: Current developments, action mechanisms and structure-activity relationships” (Eur J Med Chem, 2019).
Values belong to the compound of their own block, whether it stands above or below them.

Assays:
A549 [1] = assay: cells; assay type: functional, cell-based; conditions: Homo sapiens
Description: Antiproliferative activity against human A549 cells by MTT assay

HBL-100 = assay: Antiproliferative activity against human HBL100 cells by MTT assay; assay type: functional, cell-based
HeLa [2] = assay: Antiproliferative activity against human HeLa cells by MTT assay; assay type: functional, cell-based
SW1573 = assay: Antiproliferative activity against human SW1573 cells by MTT assay; assay type: functional, cell-based
T47D = assay: Antiproliferative activity against human T47D cells by MTT assay; assay type: functional, cell-based
WiDr = assay: Antiproliferative activity against human WiDr cells by MTT assay; assay type: functional, cell-based
K562 = assay: Antiproliferative activity against human K562 cells assessed as reduction in cell viability after 24 hrs by MTT assay; assay type: functional, cell-based; conditions: K562, 24 h
PC-3 = assay: Antiproliferative activity against human PC3 cells assessed as reduction in cell viability after 24 hrs by MTT assay; assay type: functional, cell-based; conditions: PC-3, 24 h
A-431 = assay: Antiproliferative activity against human A431 cells assessed as reduction in cell viability after 24 hrs by MTT assay; assay type: functional, cell-based; conditions: A-431, 24 h
MDA-MB-231 [3] = assay: Antiproliferative activity against human MDA-MB-231 cells assessed as reduction in cell viability after 24 hrs by MTT assay; assay type: functional, cell-based; conditions: MDA-MB-231, 24 h
COLO 205 = assay: Antiproliferative activity against human COLO205 cells assessed as reduction in cell viability after 24 hrs by MTT assay; assay type: functional, cell-based; conditions: COLO 205, 24 h
A549 [4] = assay: Antiproliferative activity against human A549 cells assessed as reduction in cell viability after 24 hrs by MTT assay; assay type: functional, cell-based; conditions: A549, 24 h
MCF7 [5] = assay: Antiproliferative activity against human MCF7 cells assessed as reduction in cell viability after 48 hrs by SRB assay; assay type: functional, cell-based; conditions: MCF7, 48 h
HeLa [6] = assay: Antiproliferative activity against human HeLa cells assessed as reduction in cell viability after 48 hrs by SRB assay; assay type: functional
HepG2 [7] = assay: Antiproliferative activity against human HepG2 cells assessed as reduction in cell viability after 48 hrs by SRB assay; assay type: functional; conditions: HepG2, 48 h
IMR-32 = assay: Antiproliferative activity against human IMR32 cells assessed as reduction in cell viability after 48 hrs by SRB assay; assay type: functional; conditions: IMR-32, 48 h
MCF7 [8] = assay: cells; assay type: functional, cell-based; conditions: Homo sapiens
Description: Antiproliferative activity against human MCF7 cells by MTT assay

MDA-MB-231 [9] = assay: Antiproliferative activity against human MDA-MB-231 cells by MTT assay; assay type: functional, cell-based
MCF-10A = assay: Cytotoxicity against human MCF10A cells by MTT assay; assay type: cell-based
Lu1 = assay: Antiproliferative activity against human Lu1 cells by MTT assay; assay type: functional, cell-based
HL-60 = assay: Antiproliferative activity against human HL60 cells by MTT assay; assay type: functional, cell-based
P388 = assay: Antiproliferative activity against mouse P388 cells by MTT assay; assay type: functional, cell-based
HepG2 [10] = assay: Antiproliferative activity against human HepG2 cells by MTT assay; assay type: functional, cell-based
KB = assay: Antiproliferative activity against human KB cells by MTT assay; assay type: functional, cell-based

SMILES: COC(=O)c1coc([C@H](Cc2ccccc2)n2cc(CC3CC(O[Si](C)(C)C(C)(C)C)CC(C(C)C)C3)nn2)n1 (stereo partly drawn)
- IC50 (A549 [1]): 3.1 to 88 µM
- IC50 (HBL-100): 3.1 to 88 µM
- IC50 (HeLa [2]): 3.1 to 88 µM
- IC50 (SW1573): 3.1 to 88 µM
- IC50 (T47D): 3.1 to 88 µM
- IC50 (WiDr): 3.1 to 88 µM

SMILES: CC(=O)c1ccc(-n2cc(CO[C@H]3O[C@@H]4O[C@@]5(C)O[C@]46[C@@H](CC[C@@H](C)[C@@H]6C[C@H]5O)[C@H]3C)nn2)cc1
- IC50 (K562): 4.06 to 89.9 µM
- IC50 (PC-3): 4.06 to 89.9 µM
- IC50 (A-431): 4.06 to 89.9 µM
- IC50 (MDA-MB-231 [3]): 4.06 to 89.9 µM
- IC50 (COLO 205): 4.06 to 89.9 µM
- IC50 (A549 [4]): 4.06 to 89.9 µM

SMILES: Cc1c(-n2nnc(-c3nn(-c4nncc5ccccc45)cc3C=O)c2C)cccc1C(F)(F)F
- IC50 (MCF7 [8]): 6.8 to 27.6 µM
- IC50 (MDA-MB-231 [9]): 6.8 to 27.6 µM
- IC50 (MCF-10A): 21.9 to 25.3 µM

SMILES: Cc1ccc(-n2cc(OCc3cn(Cc4ccccc4Cl)nn3)cn2)cc1
- GI50 (MCF7 [5]): 1.8 to 9.7 µM
- GI50 (HeLa [6]): 1.8 to 9.7 µM
- GI50 (HepG2 [7]): 1.8 to 9.7 µM
- GI50 (IMR-32): 1.8 to 9.7 µM

SMILES: Cc1c(C(F)(F)F)cc(Cl)c(Cl)c1-n1nnc(-c2nn(-c3nncc4ccccc34)cc2C=O)c1C
- IC50 (MCF7 [8]): 6.8 to 27.6 µM
- IC50 (MDA-MB-231 [9]): 6.8 to 27.6 µM
- IC50 (MCF-10A): 21.9 to 25.3 µM

SMILES: CCCC1CC(Cc2cn([C@@H](Cc3ccccc3)c3nc(C(=O)OC)co3)nn2)CC(O[Si](C)(C)C(C)(C)C)C1 (stereo partly drawn)
- IC50 (A549 [1]): 3.1 to 88 µM
- IC50 (HBL-100): 3.1 to 88 µM
- IC50 (HeLa [2]): 3.1 to 88 µM
- IC50 (SW1573): 3.1 to 88 µM
- IC50 (T47D): 3.1 to 88 µM
- IC50 (WiDr): 3.1 to 88 µM

SMILES: C[C@@H]1CC[C@H]2[C@@H](C)C(=O)O[C@@H]3O[C@@]4(C)CC[C@@H]1[C@]32OO4 [ARTEMISININ]
- IC50 (K562): 39 to 68.8 µM
- IC50 (PC-3): 39 to 68.8 µM
- IC50 (A-431): 39 to 68.8 µM
- IC50 (MDA-MB-231 [3]): 39 to 68.8 µM
- IC50 (COLO 205): 39 to 68.8 µM
- IC50 (A549 [4]): 39 to 68.8 µM

SMILES: C[C@H]1[C@H](OC(=O)CCC(=O)O)O[C@@H]2O[C@@]3(C)CC[C@H]4[C@H](C)CC[C@@H]1[C@@]24OO3 [ARTESUNATE]
- IC50 (HepG2 [10]): 59.4 µM
- IC50 (KB): 78.5 µM

SMILES: Cc1c2ccncc2c(C)c2c1[nH]c1ccccc12 [ELLIPTECINE]
- IC50 (MCF7 [8]): 1.7 to 3.5 µM
- IC50 (Lu1): 1.7 to 3.5 µM
- IC50 (HL-60): 1.7 to 3.5 µM
- IC50 (P388): 1.7 to 3.5 µM
- IC50 (HepG2 [10]): 0.93 to 1.46 µM
- IC50 (KB): 0.81 to 1.26 µM

More lines, main results first:

- IC50 (A549 [1]): 3.1 to 88 µM
- IC50 (HeLa [2]): 3.1 to 88 µM
- IC50 (SW1573): 3.1 to 88 µM
- IC50 (T47D): 3.1 to 88 µM
SMILES: COC(=O)c1coc(Cn2cc(CC3CC(CCc4ccccc4)CC(O[Si](C)(C)C(C)(C)C)C3)nn2)n1 (stereo not drawn)
- IC50 (HBL-100): 3.1 to 88 µM
- IC50 (WiDr): 3.1 to 88 µM

- GI50 (MCF7 [5]): 1.8 to 9.7 µM
- GI50 (HeLa [6]): 1.8 to 9.7 µM
- GI50 (HepG2 [7]): 1.8 to 9.7 µM
SMILES: Fc1ccc(-n2ncc(OCc3cn(Cc4cccc(Cl)c4)nn3)c2-c2ccc(Cl)cc2)cc1
- GI50 (IMR-32): 1.8 to 9.7 µM

- IC50 (A549 [1]): 3.1 to 88 µM
- IC50 (HeLa [2]): 3.1 to 88 µM
- IC50 (SW1573): 3.1 to 88 µM
- IC50 (T47D): 3.1 to 88 µM
SMILES: CCC(C)[C@@H](c1nc(C(=O)OC)co1)n1cc(CC2CC(CCc3ccccc3)CC(O[Si](C)(C)C(C)(C)C)C2)nn1 (stereo partly drawn)
- IC50 (HBL-100): 3.1 to 88 µM
- IC50 (WiDr): 3.1 to 88 µM

- GI50 (MCF7 [5]): 1.8 to 3.8 µM
- GI50 (HeLa [6]): 1.8 to 3.8 µM
- GI50 (HepG2 [7]): 1.8 to 3.8 µM
SMILES: Fc1ccc(-n2ncc(OCc3cn(Cc4ccccc4)nn3)c2-c2ccc(Cl)cc2)cc1
- GI50 (IMR-32): 1.8 to 3.8 µM

- IC50 (A549 [1]): 3.1 to 88 µM
- IC50 (HeLa [2]): 3.1 to 88 µM
- IC50 (SW1573): 3.1 to 88 µM
- IC50 (T47D): 3.1 to 88 µM
SMILES: CCCC1CC(Cc2cn(Cc3nc(C(=O)OC)co3)nn2)CC(O[Si](C)(C)C(C)(C)C)C1 (stereo not drawn)
- IC50 (HBL-100): 3.1 to 88 µM
- IC50 (WiDr): 3.1 to 88 µM

- IC50 (A549 [1]): 3.1 to 88 µM
- IC50 (HeLa [2]): 3.1 to 88 µM
- IC50 (SW1573): 3.1 to 88 µM
- IC50 (T47D): 3.1 to 88 µM
SMILES: CCCC1CC(Cc2cn([C@H](c3nc(C(=O)OC)co3)C(C)CC)nn2)CC(O[Si](C)(C)C(C)(C)C)C1 (stereo partly drawn)
- IC50 (HBL-100): 3.1 to 88 µM
- IC50 (WiDr): 3.1 to 88 µM

- IC50 (K562): 4.06 to 89.9 µM
- IC50 (PC-3): 4.06 to 89.9 µM
- IC50 (A-431): 4.06 to 89.9 µM
- IC50 (MDA-MB-231 [3]): 4.06 to 89.9 µM
- IC50 (COLO 205): 4.06 to 89.9 µM
- IC50 (A549 [4]): 4.06 to 89.9 µM
SMILES: C[C@H]1[C@@H](OCc2cn(-c3ccc(C#N)cc3)nn2)O[C@@H]2O[C@@]3(C)O[C@]24[C@H]1CC[C@@H](C)[C@@H]4C[C@H]3O

- GI50 (MCF7 [5]): 1.8 to 9.7 µM
- GI50 (HeLa [6]): 1.8 to 9.7 µM
- GI50 (HepG2 [7]): 1.8 to 9.7 µM
SMILES: O=[N+]([O-])c1ccc(Cn2cc(COc3cnn(-c4ccc(F)cc4)c3-c3ccc(Cl)cc3)nn2)cc1
- GI50 (IMR-32): 1.8 to 9.7 µM

- IC50 (MCF7 [8]): 39.9 to 84.3 µM
- IC50 (HL-60): 39.9 to 84.3 µM
- IC50 (P388): 39.9 to 84.3 µM
- IC50 (K562): 42.4 to 52.6 µM
- IC50 (PC-3): 42.4 to 52.6 µM
- IC50 (A-431): 42.4 to 52.6 µM
- IC50 (MDA-MB-231 [3]): 42.4 to 52.6 µM
- IC50 (COLO 205): 42.4 to 52.6 µM
- IC50 (A549 [4]): 42.4 to 52.6 µM
- IC50 (HepG2 [10]): 63.7 µM
- IC50 (KB): 95.3 µM
SMILES: C[C@H]1[C@@H](O)O[C@@H]2O[C@@]3(C)CC[C@H]4[C@H](C)CC[C@@H]1[C@@]24OO3 [ARTENIMOL]
- IC50 (Lu1): 39.9 to 84.3 µM

- IC50 (HepG2 [10]): > 400 µM
- IC50 (KB): > 400 µM
SMILES: Cc1cn([C@H]2C[C@H](N=[N+]=[N-])[C@@H](CO)O2)c(=O)[nH]c1=O [ZIDOVUDINE]
